This is an account of results in patent publication US20130251730A1, “Compounds and Mixtures Influencing Inflammatory States” (SYMRISE AG, priority 2012, published 2013).

SMILES strings stand for the structures. Marks after values point to notes of the source that are not given here.

Experiment [1] deals with IL-8 release by human gingival fibroblastic cells (HGF-1). Description: Release of IL-8 by HGF-1 cells after stimulation with 10 μg/ml PG-LPS (magnetic bead assay). The format is cell-based. The protocol: Human gingival fibroblastic cells (HGF-1) were sowed out in 24-well plates with 15,000 cells per well and cultivated for 3 to 5 days. DNEM containing 10% FBS, 1% penicillin/streptomycin and 4% glutamine was used as the medium. For determination of the anti-inflammatory action the cells were incubated with 10 μg/ml PG-LPS for 6 and 9 hrs. Subsequently, the release of IL-6 and IL-8 per magnetic bead was determined (Procarta, Affimetrix) using a MAGPIX equipment (Merck-Millipore) and analysed using the Milliplex software (Merck Millipore). In each case 4 samples with two technical replicates were measured. In addition to this control the cells were co-incubated with • (a) 10 μg/ml PG-LPS and also with • (b) solutions of the Herba Santa extract according to Example 1 (HS, containing 21.7% HED, 0.1 μM, 1 μM and 10 μM calculated on HED); • (c) the flavonoid fraction (“FF”) obtained as a by-product according to Example 4 (containg 41.5% HED, 0,1 μM, 1 μM and 10 μM calculated on HED); • (d) the extract rich in erionic acid (“ES”) according to Example 4 or isolated erionic acid B (according to Example 2) and • (e) erionic acid C according to Example 3 (each 0,1 μM, 1 μM and 10 μM).
(§1) After incubation the cell culture medium was transferred into an Eppendorf reaction vessel and at 4° C. for 10 min subjected to centrifugation (1000×g) in order to separate the cell depris. The upper layer was stored at −80° C. until the analysis started. The results of the release of IL-6 and […]

Experiment [2] has as its system IL-6 release by human gingival fibroblastic cells (HGF-1). Description: Release of IL-6 by HGF-1 cells after stimulation with 10 μg/ml PG-LPS (magnetic bead assay). Type of experiment: cell-based. The protocol: Human gingival fibroblastic cells (HGF-1) were sowed out in 24-well plates with 15,000 cells per well and cultivated for 3 to 5 days. DNEM containing 10% FBS, 1% penicillin/streptomycin and 4% glutamine was used as the medium. For determination of the anti-inflammatory action the cells were incubated with 10 μg/ml PG-LPS for 6 and 9 hrs. Subsequently, the release of IL-6 and IL-8 per magnetic bead was determined (Procarta, Affimetrix) using a MAGPIX equipment (Merck-Millipore) and analysed using the Milliplex software (Merck Millipore). In each case 4 samples with two technical replicates were measured. In addition to this control the cells were co-incubated with • (a) 10 μg/ml PG-LPS and also with • (b) solutions of the Herba Santa extract according to Example 1 (HS, containing 21.7% HED, […]); • (c) the flavonoid fraction (“FF”) obtained as a by-product according to Example 4 (containg 41.5% HED, […]); • (d) the extract rich in erionic acid (“ES”) according to Example 4 or isolated erionic acid B (according to Example 2) and • (e) erionic acid C according to Example 3 (each 0,1 μM, 1 μM and 10 μM).
as §1

The mark [3] stands for this setting: 10 μg/ml PG-LPS + 1 μg/ml test substance, 6 h.
Setting [4] is: 10 μg/ml PG-LPS + 1 μg/ml test substance, 9 h.
[5] abbreviates: 10 μg/ml PG-LPS + 10 μg/ml test substance, 6 h.
Where [6] appears, read: 10 μg/ml PG-LPS + 10 μg/ml test substance, 9 h.
Setting [7] is: 10 μg/ml PG-LPS + 100 μg/ml test substance, 6 h.
Where [8] appears, read: 10 μg/ml PG-LPS + 100 μg/ml test substance, 9 h.
[9] abbreviates: co-incubation with 10 μg/ml PG-LPS, 6 and 9 hrs, 0.1, 1 and 10 μM.

As to `CC(CCc1cc(C(=O)O)cc2c1OC(C)(C)C(O)C2)C(=O)/C=C/C(C)(C)O` (centres unmarked) [Erionic acid B, 3-hydroxy-8-((E)-7-hydroxy-3,7-dimethyl-4-oxo-oct-5-enyl)-2,2-dimethyl-chroman-6-carboxylic acid], the “IL-8 T/C [%]” value was 79.91% in experiment [1] (setting [3]); 77.33% in experiment [1] (setting [4]); 134.54** % in experiment [1] (setting [5]); 71.35% in experiment [1] (setting [6]); 46.30** % in experiment [1] (setting [7]); 116.34% in experiment [1] (setting [8]). For the same compound, the “release of IL-8” value in experiment [1] (setting [9]) is reported as “significant reduction”. Also, the “IL-6 T/C [%]” value is listed as 61.93* % in experiment [2] (setting [3]); 77.51* % in experiment [2] (setting [4]); 102.30% in experiment [2] (setting [5]); 61.47*** % in experiment [2] (setting [6]); 41.30** % in experiment [2] (setting [7]); 102.74% in experiment [2] (setting [8]). In experiment [2] (setting [9]), the “release of IL-6” value is “significant reduction”.
